Results from patent US11197908B2, “Peptoids and methods for attenuating inflammatory response” (THE BOARD OF TRUSTEES OF THE UNIVERSITY OF ARKANSAS, priority 2018, dated 2021).
Where a SMILES comes first, the peptide text is derived from it. [ ]: non-standard residue; d: D form. Nphe = O=C(O)CNCc1ccccc1; NPrGly = CCCNCC(=O)O; Nlys = NCCCCNCC(=O)O

Columns and labels:
IL-6 = IL-6 in supernatant of THP-1 macrophages co-incubated with peptoid and LPS (ELISA); format: cell-based, human; details: peptoid 50 μM with 2 ng/mL LPS, 3 days; vs LPS alone
Protocol: (§1) THP-1 monocytes were differentiated into macrophages through exposure to phorbol 12-myristate 13-acetate (PMA) for three days prior to experimentation 10. […] Upon differentiation, these cells were then incubated (3 days) with media containing JPT1a (50, 10, or 2 μM) alone or JPT1a (50, 10, or 2 μM) in the presence of low-dose (2 ng/mL) lipopolysaccharide (LPS) as a chronic pro-inflammatory stimulus 11. Treatment with 2 ng/mL LPS alone served as a positive control, while treatment with an equivalent volume of buffer diluted into media served as the vehicle. Cellular supernatant was harvested on day 3 12; these samples were immediately centrifuged at 1200 rpm for 10 min at 25° C. to remove any cells or debris. The top 80% of this volume was subsequently removed and stored at −80° C. for later assessment of cytokines via ELISA. Cells were fixed and stained for RAGE, phalloidin (cytoplasmic marker), and DAPI (nuclear marker) 13. […] All multi-channel images were converted to TIFF file format via ImageJ64 software for quantitative image analysis using a custom subroutine written in Matlab™ software to obtain the average RAGE expression per volume of cells, and the data generated was assessed for statistical significance using GraphPad Prism 7.0 software 15.
(§2) As shown in FIGS. 2B-2D, THP-1 macrophages were treated with JPT1a alone (white) or in the presence of a chronic low-dose (2 ng/mL) of LPS (grey), for 3 days prior to supernatant harvest and storage. Examination of the supernatant via ELISA determined the concentrations of (FIG. 2B) IL-1β, (FIG. 2C) IL-6, and (FIG. 2D) IL-8. […]
as §2, with “5B-5D,” for “2B-2D,”, “JPT1” for “JPT1a”, “5B)” for “2B)”, “5C)” for “2C)”, “5D)” for “2D)”

RAGE [1] = target: RAGE (Homo sapiens, UniProt Q15109); experiment: RAGE binding to peptoid-coated 96-well plates, Scatchard plot; details: plates coated with 500 nM peptoid; JPT1a n=3 average, JPT1 n=1
Protocol: As shown in FIGS. 7A-7D, 96-well plates coated with 500 nM JPT1a were treated with concentrations of RAGE (FIG. 7A) or E-cadherin (FIG. 7B) ranging from 1 to 500 nM. Values are reported as the average concentration of bound protein determined from all experiments. Error bars indicate SEM, n=2-5. […] In FIG. 7D, 96-well plates coated with 500 nM JPT1 were treated with concentrations of RAGE ranging from 1 to 350 nM.

IL-1β = IL-1β in supernatant of THP-1 macrophages co-incubated with peptoid and LPS (ELISA); format: cell-based, human; details: peptoid 50 μM with 2 ng/mL LPS, 3 days; vs LPS alone
Protocol: as §1, with “debris.” for “debris. The top 80% of this volume was subsequently removed and stored at −80° C. for later assessment of cytokines via ELISA. Cells were fixed and stained for RAGE, phalloidin (cytoplasmic marker), and DAPI (nuclear marker) 13.”
as §2

RAGE [2] = experiment: RAGE upregulation in THP-1 macrophages co-incubated with peptoid and low-dose LPS (confocal imaging); format: cell-based, human; details: 3 days
Protocol: THP-1 monocytes were differentiated into macrophages through exposure to phorbol 12-myristate 13-acetate (PMA) for three days prior to experimentation 10. […] Upon differentiation, these cells were then incubated (3 days) with media containing JPT1a (50, 10, or 2 μM) alone or JPT1a (50, 10, or 2 μM) in the presence of low-dose (2 ng/mL) lipopolysaccharide (LPS) as a chronic pro-inflammatory stimulus 11. Treatment with 2 ng/mL LPS alone served as a positive control, while treatment with an equivalent volume of buffer diluted into media served as the vehicle. Cellular supernatant was harvested on day 3 12; these samples were immediately centrifuged at 1200 rpm for 10 min at 25° C. to remove any cells or debris. The top 80% of this volume was subsequently removed and stored at −80° C. for later assessment of cytokines via ELISA. Cells were fixed and stained for RAGE, phalloidin (cytoplasmic marker), and DAPI (nuclear marker) 13. Each channel was imaged with a Zeiss LSM 510 META Confocal Scanning Laser Microscope using a plan-neofluar 40×/1.3 oil DIC immersion objective; three of these multi-channel images were obtained from each slide in each experiment 14. All multi-channel images were converted to TIFF file format via ImageJ64 software for quantitative image analysis using a custom subroutine written in Matlab™ software to obtain the average RAGE expression per volume of cells, and the data generated was assessed for statistical significance using GraphPad Prism 7.0 software 15.
(§3) Images acquired via confocal microscopy were analyzed via custom MATLAB™ subroutine to determine the average quantity of RAGE present within a given volume of cells. Results within each experiment are normalized to the positive control (2 ng/mL LPS alone), indicated by the dashed line at 1. Significance relative to positive control is indicated as ** p<0.01. Error bars indicate SEM, n=4.
as §3, with “1.0.” for “1. Significance relative to positive control is indicated as ** p<0.01.”, “n=2.” for “n=4.”

RAGE (Homo sapiens, UniProt Q15109), sequence (Q15109 23-404): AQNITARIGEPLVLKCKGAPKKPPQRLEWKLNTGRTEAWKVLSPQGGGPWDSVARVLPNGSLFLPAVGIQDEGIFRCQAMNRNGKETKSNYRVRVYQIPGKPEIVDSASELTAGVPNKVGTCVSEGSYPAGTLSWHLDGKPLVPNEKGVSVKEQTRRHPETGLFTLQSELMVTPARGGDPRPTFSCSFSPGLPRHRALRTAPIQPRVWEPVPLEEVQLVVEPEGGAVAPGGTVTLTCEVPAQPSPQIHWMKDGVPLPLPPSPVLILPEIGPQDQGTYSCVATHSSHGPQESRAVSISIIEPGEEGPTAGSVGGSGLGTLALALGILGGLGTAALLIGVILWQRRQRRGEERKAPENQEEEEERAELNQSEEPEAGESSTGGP

CCCN(CC(=O)N(CCC)CC(=O)N(CC(=O)N(CC(=O)N(CCC)CC(=O)N(CC(=O)N(CC(N)=O)Cc1ccccc1)Cc1ccccc1)Cc1ccccc1)Cc1ccccc1)C(=O)CNCCCCN [JPT1] (H-[Nlys][NPrGly][NPrGly][Nphe][Nphe][NPrGly][Nphe][Nphe]-NH2)
LPS-induced production of IL-6 (IL-6): significantly attenuates
Kd (RAGE [1]): 78.8 nM
LPS-induced production of IL-1β (IL-1β): significantly attenuates
upregulation in RAGE expression in the presence of LPS (RAGE [2]; peptoid 50, 10 or 2 μM with 2 ng/mL LPS, normalized to LPS alone): reduced in a dose-dependent manner
expression of RAGE, peptoid alone (RAGE [2]; peptoid alone (no LPS), relative to the control): does not provoke response or upregulation
